≈ marks a conversion by molar mass, not a printed value.
How the values were obtained:
Assay type in all cases: functional
Escherichia coli [1] = experiment: In vitro antibacterial activity against Escherichia coli 1850 strain
Pseudomonas aeruginosa = experiment: In vitro antibacterial activity against Pseudomonas aeruginosa 1911 strain
Staphylococcus aureus [2] = experiment: In vitro antibacterial activity against Staphylococcus aureus 853 strain
Escherichia coli [3] = experiment: In vitro antibacterial activity against Escherichia coli 1919 strain
Staphylococcus aureus [4] = experiment: In vitro antibacterial activity against Staphylococcus aureus 663 strain
Enterococcus faecalis = experiment: In vitro antibacterial activity against Enterococcus faecalis 850 strain

Compound	MIC (Escherichia coli [1]) [mg/L]	MIC (Pseudomonas aeruginosa) [mg/L]	MIC (Staphylococcus aureus [2]) [mg/L]	MIC (Escherichia coli [3]) [mg/L]	MIC (Staphylococcus aureus [4]) [mg/L]	MIC (Enterococcus faecalis) [mg/L]
C[C@@H](O)[C@H]1C(=O)N2C(C(=O)O)=C3[C@@H](N)CCC[C@@H]3[C@H]12	1 (≈ 3.76 µM)	4 (≈ 15 µM)	0.25 (≈ 0.939 µM)	0.5 (≈ 1.88 µM)	0.25 (≈ 0.939 µM)	16 (≈ 60.1 µM)
C[C@@H](O)[C@H]1C(=O)N2C(C(=O)O)=C3[C@@H](NC4CCCC4)CCC[C@@H]3[C@H]12	8 (≈ 23.9 µM)	32 (≈ 95.7 µM)	4 (≈ 12 µM)	32 (≈ 95.7 µM)	8 (≈ 23.9 µM)	32 (≈ 95.7 µM)
C[C@@H](O)[C@H]1C(=O)N2C(C(=O)O)=C3[C@H](CCC[C@@H]3N(C)C)[C@H]12	2 (≈ 6.79 µM)	8 (≈ 27.2 µM)	0.25 (≈ 0.849 µM)	1 (≈ 3.4 µM)	0.25 (≈ 0.849 µM)	> 32

Further lines, results first:

MIC (Escherichia coli [1]) [mg/L]	MIC (Pseudomonas aeruginosa) [mg/L]	MIC (Staphylococcus aureus [2]) [mg/L]	MIC (Escherichia coli [3]) [mg/L]	MIC (Staphylococcus aureus [4]) [mg/L]	MIC (Enterococcus faecalis) [mg/L]	Compound
0.5	> 32	0.25	0.5	0.25	1	CO[C@H]1CCC[C@H]2C1=C(C(=O)[O-])N1C(=O)[C@H]([C@@H](C)O)[C@@H]21.[Na+] [SANFETRINEM SODIUM]
2 (≈ 7.13 µM)	4 (≈ 14.3 µM)	0.5 (≈ 1.78 µM)	0.5 (≈ 1.78 µM)	0.25 (≈ 0.892 µM)	16 (≈ 57.1 µM)	CN[C@H]1CCC[C@H]2C1=C(C(=O)O)N1C(=O)[C@H]([C@@H](C)O)[C@@H]21

Source: ChEMBL document CHEMBL1129122, “Synthesis and antimicrobial activity of 4-amino trinems” (1996)
